Test [1] has as its system Human IL2 promoter. Briefly: Human IL2 promoter reporter gene assay (RGA) in Jurkat cells. It counts as cell-based. The note with it: Jurkat clone K22 290_H23, anti-CD28 mAb + PMA stimulation 5.5 h. As for the experimental part: Human IL2 Promoter Reporter Gene Assay (RGA) in Jurkat Cells
The transfected Jurkat clone K22 290_H23 was propagated in RPMI 1640 supplemented with 10% heat inactivated fetal calf serum, 50 μM 2-mercaptoethanol and 1 mg/ml Geneticin. The cell concentration should not exceed 1×10e6/ml during culturing. The cells should not exceed passage 30. Prior to the assay the cells were washed and prepared to the concentration of 2×10e6 cells/ml.
Compound dilutions were made as 2×-concentrated solutions then diluted 1/2 by addition to cells. Two hundred and fifty μl of compound dilution and 250 μl of cells were mixed together in wells of a 96-deep well plate. Cells/compounds premix were incubated 30 min at 37° C. and 5% CO2 directly in the deep well plate.
After pre-incubation of cells with compounds, cells were stimulated with anti-CD28 mAb (clone 15E8) at 3 μg/ml+PMA at 1 μg/ml. Both co-stimulants were diluted in culture medium at a 10×-concentrated solution. 10 μl of co-stimulants were pipetted into the white 96-well plates and 100 μl of cell/compound mix was immediately added in duplicates. The cells were stimulated for 5.5 h at 37° C. and 5% CO2.
After cell stimulation, 50 μl of BriteLitePlus reagent (Perkin Elmer) was added to each well and the bioluminescence was measured with a Wallac EnVision reader (Perkin Elmer).

Test [2] has as its target C-domain of MALT1 (amino acids 329-824) (Homo sapiens (Human), UniProt Q9UDY8). The test can be described thus: MALT1 biochemical assay (fluorescence lifetime enzyme activity assay). The note with it: 60 min pre-incubation, 2.5 nM enzyme, 1 μM peptide substrate. As for the experimental part:
The readout parameter is the increase of fluorescence lifetime over time, proportional to enzyme activity.
The assay employs a short peptide substrate labeled with the single fluorophore PT14 as a fluorescence lifetime probe sensitive to the cleavage state of the substrate (PT14: 6-(9-oxo-9H-acridin-10-yl)-hexanoate, AssayMetrics, UK). […] The assay buffer consists of 200 mM Tris/HCl at pH 7.5, 0.8 M Na citrate, 100 μM EGTA, 100 μM DTT and 0.05% (w/v) CHAPS. […] Test compounds were dissolved in 100% (v/v) DMSO or a mixture containing 90% (v/v) DMSO and 10% (v/v) H2O at a stock concentration of 100 mM. Serial dilutions of test compounds were prepared using either 100% (v/v) DMSO or a mixture containing 90% (v/v) DMSO and 10% (v/v) H2O.

Chain of C-domain of MALT1 (amino acids 329-824) (Q9UDY8 329-824): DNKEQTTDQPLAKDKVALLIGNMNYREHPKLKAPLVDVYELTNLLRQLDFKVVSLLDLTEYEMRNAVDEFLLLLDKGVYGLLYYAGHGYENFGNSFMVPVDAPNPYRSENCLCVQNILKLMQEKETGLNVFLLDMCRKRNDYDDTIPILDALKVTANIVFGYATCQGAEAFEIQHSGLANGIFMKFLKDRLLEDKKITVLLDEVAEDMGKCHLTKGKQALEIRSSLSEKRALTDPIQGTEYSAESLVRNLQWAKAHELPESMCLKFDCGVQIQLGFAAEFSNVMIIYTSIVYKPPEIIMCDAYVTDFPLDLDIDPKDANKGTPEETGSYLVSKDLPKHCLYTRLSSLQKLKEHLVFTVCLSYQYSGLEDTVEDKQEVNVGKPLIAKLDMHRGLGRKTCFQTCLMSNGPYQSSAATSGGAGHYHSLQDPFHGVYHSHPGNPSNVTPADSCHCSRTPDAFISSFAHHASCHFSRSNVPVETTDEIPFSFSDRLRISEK

Consider `COC[C@@H](OC)c1c(NC(=O)Nc2cnc(-n3nccn3)c(Cl)c2)cnc2cc(Cl)nn12` [Example 127, (S)-1-(5-chloro-6-(2H-1,2,3-triazol-2-yl)pyridin-3-yl)-3-(2-chloro-7-(1,2-dimethoxyethyl)pyrazolo[1,5-a]pyrimidin-6-yl)urea], for which the IC50 in test [1] stood at 78 nM; in test [2], 9 nM.

For the compound `CO[C@H](c1c(NC(=O)Nc2cnc(-n3nccn3)c(Cl)c2)cnc2cc(Cl)nn12)[C@@H](C)OC` [Example 98, 1-(5-chloro-6-(2H-1,2,3-triazol-2-yl)pyridin-3-yl)-3-(2-chloro-7-((1R,2R)-1,2-dimethoxypropyl)pyrazolo[1,5-a]pyrimidin-6-yl)urea], the IC50 in test [1] amounted to 44 nM.

In the case of `CO[C@@H](C)c1c(NC(=O)Nc2cnc(-n3nccn3)c(Cl)c2)cnc2cc(C#N)nn12` [Example 96, (S)-1-(5-chloro-6-(2H-1,2,3-tirazol-2-yl)pyridin-3-yl)-3-(2-cyano-7-(1-methoxyethyl)pyrazolo[1,5-a]pyrimidin-6-yl)urea], the IC50 is 49 nM in test [1] and 10 nM in test [2].

For the compound `CO[C@@H](C)c1c(NC(=O)Nc2cnc(OC(F)F)c(Cl)c2)cnc2cc(Cl)nn12` [Example 93, (S)-1-(5-chloro-6-(difluoromethoxy)pyridin-3-yl)-3-(2-chloro-7-(1-methoxyethyl)pyrazolo[1,5-a]pyrimidin-6-yl)urea], the IC50 in test [1] came to 157 nM; in test [2] it was 1 nM.

On to `CN(C)C1(c2c(NC(=O)Nc3cnc(-n4nccn4)c(C(F)(F)F)c3)cnc3cc(Cl)nn23)CC1` [Example 107, 1-(6-(2H-1,2,3-triazol-2-yl)-5-(trifluoromethyl)pyridin-3-yl)-3-(2-chloro-7-(1-(dimethylamino)cyclopropyl)pyrazolo[1,5-a]pyrimidin-6-yl)urea], for which the IC50 was 60 nM in test [1] and 13 nM in test [2].

With `COCC(OC)c1c(NC(=O)Nc2ccnc(C(F)(F)F)c2)cnc2cc(Cl)nn12` (centres unmarked) [Example 109, 1-(2-chloro-7-(1,2-dimethoxyethyl)pyrazolo[1,5-a]pyrimidin-6-yl)-3-(2-(trifluoromethyl)pyridin-4-yl)urea], the IC50 in test [1] stood at 218 nM; in test [2], 53 nM.

In the case of `CO[C@@H](C)c1c(NC(=O)Nc2cnc(-n3nccn3)c(Cl)c2)cnc2cc(Cl)nn12` [Example 10, (S)-1-(5-chloro-6-(2H-1,2,3-triazol-2-yl)pyridin-3-yl)-3-(2-chloro-7-(1-methoxyethyl)pyrazolo[1,5-a]pyrimidin-6-yl)urea], the IC50 in test [1] worked out at 19 nM.

In the case of `Cc1cc2ncc(NC(=O)Nc3cnc(-n4nccn4)c(Cl)c3)c(C3(C)CCCO3)n2n1` (centres unmarked) [Example 104, 1-(5-chloro-6-(2H-1,2,3-triazol-2-yl)pyridin-3-yl)-3-(2-methyl-7-(2-methyltetrahydrofuran-2-yl)pyrazolo[1,5-a]pyrimidin-6-yl)urea], the values for the IC50 in test [1] and in test [2] were 24 nM and 2 nM, respectively.

On to `CO[C@@H](C)c1c(NC(=O)Nc2ccnc(C(F)F)c2)cnc2cc(Cl)nn12` [Example 92, (S)-1-(2-chloro-7-(1-methoxyethyl)pyrazolo[1,5-a]pyrimidin-6-yl)-3-(2-(difluoromethyl)pyridin-4-yl)urea], for which the figures for the IC50 in test [1] and in test [2] were 46 nM and 9 nM, respectively.

Regarding `C[C@H](O[C@H]1CCOC1)c1c(NC(=O)Nc2cnc(-n3nccn3)c(Cl)c2)cnc2cc(Cl)nn12` [Example 101, 1-(5-chloro-6-(2H-1,2,3-triazol-2-yl)pyridin-3-yl)-3-(2-chloro-7-((S)-1-(((S)-tetrahydrofuran-3-yl)oxy)ethyl)pyrazolo[1,5-a]pyrimidin-6-yl)urea], the IC50 in test [1] worked out at 25 nM; in test [2], 5 nM.

For the compound `CO[C@@H](C)c1c(NC(=O)Nc2cc(Cl)cnc2OCCN(C)C)cnc2cc(Cl)nn12` [Example 99, (S)-1-(5-chloro-2-(2-(dimethylamino)ethoxy)pyridin-3-yl)-3-(2-chloro-7-(1-methoxyethyl)pyrazolo[1,5-a]pyrimidin-6-yl)urea], the IC50 is 41 nM in test [1] and 21 nM in test [2].

Regarding `C[C@H](O[C@@H]1CCOC1)c1c(NC(=O)Nc2cnc(-n3nccn3)c(Cl)c2)cnc2cc(Cl)nn12` [Example 100, 1-(5-chloro-6-(2H-1,2,3-triazol-2-yl)pyridin-3-yl)-3-(2-chloro-7-((S)-1-(((R)-tetrahydrofuran-3-yl)oxy)ethyl)pyrazolo[1,5-a]pyrimidin-6-yl)urea], the IC50 in test [1] turned out to be 84 nM; in test [2], 19 nM.

Turning to `COC[C@@H](C)c1c(NC(=O)Nc2cnc(-n3nccn3)c(C(F)(F)F)c2)cnc2cc(Cl)nn12` [Example 110, (S)-1-(6-(2H-1,2,3-triazol-2-yl)-5-(trilfuoromethyl)pyridin-3-yl)-3-(2-chloro-7-(1-methoxypropan-2-yl)pyrazolo[1,5-a]pyrimidin-6-yl)urea], the values for the half-maximal inhibitory concentration (IC50) in test [1] and in test [2] were 115 nM and 9 nM, respectively.

Consider `CO[C@@H](C)c1c(NC(=O)Nc2cnc(-n3nccn3)c(Cl)c2)cnc2cc(F)nn12` [Example 95, (S)-1-(5-chloro-6-(2H-1,2,3-triazol-2-yl)pyridin-3-yl)-3-(2-fluoro-7-(1-methoxyethyl)pyrazolo[1,5-a]pyrimidin-6-yl)urea], for which the values for the IC50 in test [1] and in test [2] were 13 nM and 2 nM, respectively.

Take `CN1CCOCC1c1c(NC(=O)Nc2cnc(-n3nccn3)c(Cl)c2)cnc2cc(Cl)nn12` (centres unmarked) [Example 125, 1-(5-chloro-6-(2H-1,2,3-triazol-2-yl)pyridin-3-yl)-3-(2-chloro-7-(4-methylmorpholin-3-yl)pyrazolo[1,5-a]pyrimidin-6-yl)urea]: the IC50 in test [1] was 138 nM; in test [2], 9 nM.

For `CO[C@@H](C)c1c(NC(=O)Nc2cnc(-n3nccn3)c(C(F)F)c2)cnc2cc(Cl)nn12` [Example 89, (S)-1-(2-chloro-7-(1-methoxyethyl)pyrazolo[1,5-a]pyrimidin-6-yl)-3-(5-(difluoromethyl)-6-(2H-1,2,3-triazol-2-yl)pyridin-3-yl)urea], the figures for the IC50 in test [1] and in test [2] were 46 nM and 3 nM, respectively.

For `C[C@H](OC[C@H]1CCOC1)c1c(NC(=O)Nc2cnc(-n3nccn3)c(Cl)c2)cnc2cc(Cl)nn12` [Example 102, 1-(5-chloro-6-(2H-1,2,3-triazol-2-yl)pyridin-3-yl)-3-(2-chloro-7-((S)-1-(((S)-tetrahydrofuran-3-yl)methoxy)ethyl)pyrazolo[1,5-a]pyrimidin-6-yl)urea], the 50% inhibitory concentration (IC50) worked out at 14 nM in test [1] and 3 nM in test [2].

With `CO[C@@H](C)c1c(NC(=O)Nc2cncc(C#N)c2)cnc2cc(Cl)nn12` [Example 8, (S)-1-(2-chloro-7-(1-methoxyethyl)pyrazolo[1,5-a]pyrimidin-6-yl)-3-(5-cyanopyridin-3-yl)urea], the IC50 in test [1] came out at 33 nM.

Consider `CC(C)c1c(NC(=O)Nc2cnc(-n3nccn3)c(Cl)c2)cnc2cc(Cl)nn12` [Example 21, 1-(5-chloro-6-(2H-1,2,3-triazol-2-yl)pyridin-3-yl)-3-(2-chloro-7-isopropylpyrazolo[1,5-a]pyrimidin-6-yl)urea], for which, in test [1], the IC50 came to 104 nM.

On to `CO[C@H](C)c1c(NC(=O)Nc2cnc(-n3nccn3)c(Cl)c2)cnc2cc(Cl)nn12` [Example 46, (R)-1-(5-chloro-6-(2H-1,2,3-triazol-2-yl)pyridin-3-yl)-3-(2-chloro-7-(1-methoxyethyl)pyrazolo[1,5-a]pyrimidin-6-yl)urea], for which the IC50 in test [1] was 82 nM.

Consider `O=C(Nc1cnc(-n2nccn2)c(Cl)c1)Nc1cnc2cc(Cl)nn2c1C1COCCN1` (centres unmarked) [Example 123, 1-(5-chloro-6-(2H-1,2,3-triazol-2-yl)pyridin-3-yl)-3-(2-chloro-7-(morpholin-3-yl)pyrazolo[1,5-a]pyrimidin-6-yl)urea], for which the IC50 in test [1] amounted to 199 nM.

For the compound `CC(C)c1c(NC(=O)Nc2cnc(-c3ccnn3C)c(Cl)c2)cnc2cc(Cl)nn12` [Example 29, 1-(5-chloro-6-(1-methyl-1H-pyrazol-5-yl)pyridin-3-yl)-3-(2-chloro-7-isopropylpyrazolo[1,5-a]pyrimidin-6-yl)urea], the IC50 in test [2] worked out at 370 nM.

Take `O=C(Nc1cnc(-n2nccn2)c(Cl)c1)Nc1cnc2cc(Cl)nn2c1C1CCOCC1` [Example 58, 1-(5-chloro-6-(2H-1,2,3-triazol-2-yl)pyridin-3-yl)-3-(2-chloro-7-(tetrahydro-2H-pyran-4-yl)pyrazolo[1,5-a]pyrimidin-6-yl)urea]: the half-inhibitory concentration (IC50) in test [1] came out at 267 nM.

These data come from patent publication US9815842B2, “Pyrazolo pyrimidine derivatives and their use as MALT1 inhibitors” (Novartis AG, priority 2014, dated 2017).
